# Data as given in patent US10245261B2, “Substituted indol-5-ol derivatives and their therapeutic applications” (NantBioScience, Inc., priority 2013, dated 2019).
# Legend:
# Test in all cases: KinaseProfiler kinase assay
# Type in all cases: biochemical
# SAPK4(h) = SAPK4(h) (Homo sapiens, UniProt O15264)
# Procedure, shortened: (§1)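 Each enzyme was assayed radiometrically: 40 min room-temperature reaction with [γ-33P]ATP and 10 mM Mg acetate, acid-stopped, filtered, scintillation-counted.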
# Arg(h) = Arg(h) (Homo sapiens, UniProt P42684)
# Procedure, shortened: as §1
# Aurora-B(h) = Aurora-B(h) (Homo sapiens, UniProt Q96GD4)
# Procedure, shortened: as §1
# PAK4(h) = PAK4(h) (Homo sapiens, UniProt O96013)
# Procedure, shortened: as §1
# PIP4K2α(h) = PIP4K2α(h) (Homo sapiens, UniProt P48426)
# Procedure, shortened: as §1
# CK1δ(h) = CK1δ(h) (Homo sapiens, UniProt P48730)
# Procedure, shortened: as §1
# SGK(h) = SGK(h) (Homo sapiens, UniProt O00141)
# Procedure, shortened: as §1
# EphB1(h) = EphB1(h) (Homo sapiens, UniProt P54762)
# Procedure, shortened: as §1
# Fes(h) = Fes(h) (Homo sapiens, UniProt P07332)
# Procedure, shortened: as §1
# ALK4(h) = ALK4(h) (Homo sapiens, UniProt P36896)
# Procedure, shortened: as §1
# TSSK1(h) = TSSK1(h) (Homo sapiens, UniProt Q9BXA7)
# Procedure, shortened: as §1
# ULK2(h) = ULK2(h) (Homo sapiens, UniProt Q8IYT8)
# Procedure, shortened: as §1
# PRAK(h) = PRAK(h) (Homo sapiens, UniProt Q8IW41)
# Procedure, shortened: as §1
# PIP5K1α(h) = PIP5K1α(h) (Homo sapiens, UniProt Q99755)
# Procedure, shortened: as §1
# TAO1(h) = TAO1(h) (Homo sapiens, UniProt Q7L7X3)
# Procedure, shortened: as §1
# JNK3(h) = JNK3(h) (Homo sapiens, UniProt P53779)
# Procedure, shortened: as §1
# EGFR(T790M, L858R)(h) = EGFR(T790M, L858R)(h) (Homo sapiens, UniProt P00533, L858R/T790M)
# Procedure, shortened: as §1
# CaMKIδ(h) = CaMKIδ(h) (Homo sapiens, UniProt Q8IU85)
# Procedure, shortened: as §1
# EGFR(L858R)(h) = EGFR(L858R)(h) (Homo sapiens, UniProt P00533, L858R)
# Procedure, shortened: as §1
# PKCδ(h) = PKCδ(h) (Homo sapiens, UniProt Q05655)
# Procedure, shortened: as §1
# eEF-2K(h) = eEF-2K(h) (Homo sapiens, UniProt O00418)
# Procedure, shortened: as §1
# BrSK1(h) = BrSK1(h) (Homo sapiens, UniProt Q8TDC3)
# Procedure, shortened: as §1
# Fer(h) = Fer(h) (Homo sapiens, UniProt P16591)
# Procedure, shortened: as §1
# Mer(h) = Mer(h) (Homo sapiens, UniProt Q12866)
# Procedure, shortened: as §1
# Tie2(Y897S)(h) = Tie2(Y897S)(h) (Homo sapiens, UniProt Q02763, Y897S)
# Procedure, shortened: as §1
# SAPK2a(h) = SAPK2a(h) (Homo sapiens, UniProt Q16539)
# Procedure, shortened: as §1
# PhKγ2(h) = PhKγ2(h) (Homo sapiens, UniProt P15735)
# Procedure, shortened: as §1
# VRK2(h) = VRK2(h) (Homo sapiens, UniProt Q86Y07)
# Procedure, shortened: as §1
# PDGFRα(D842V)(h) = PDGFRα(D842V)(h) (Homo sapiens, UniProt P16234, D842V)
# Procedure, shortened: as §1
# cKit(V560G)(h) = cKit(V560G)(h) (Homo sapiens, UniProt P10721, V560G)
# Procedure, shortened: as §1
# PTK5(h) = PTK5(h) (Homo sapiens, UniProt P42685)
# Procedure, shortened: as §1
# TAK1(h) = TAK1(h) (Homo sapiens, UniProt O43318)
# Procedure, shortened: as §1
# SAPK4(h), sequence (O15264 whole entry): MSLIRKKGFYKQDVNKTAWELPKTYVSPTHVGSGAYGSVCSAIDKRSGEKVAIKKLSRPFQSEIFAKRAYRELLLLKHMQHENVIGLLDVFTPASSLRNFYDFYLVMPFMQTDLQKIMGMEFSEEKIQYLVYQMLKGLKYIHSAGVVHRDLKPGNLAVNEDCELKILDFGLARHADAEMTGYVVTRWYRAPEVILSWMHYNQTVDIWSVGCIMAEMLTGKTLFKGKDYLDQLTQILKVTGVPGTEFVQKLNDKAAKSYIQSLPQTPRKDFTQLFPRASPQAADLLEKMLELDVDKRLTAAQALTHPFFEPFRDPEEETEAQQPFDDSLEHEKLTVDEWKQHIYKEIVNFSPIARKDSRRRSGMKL
# Tie2(Y897S)(h), sequence (Q02763 23-1124 Y897S): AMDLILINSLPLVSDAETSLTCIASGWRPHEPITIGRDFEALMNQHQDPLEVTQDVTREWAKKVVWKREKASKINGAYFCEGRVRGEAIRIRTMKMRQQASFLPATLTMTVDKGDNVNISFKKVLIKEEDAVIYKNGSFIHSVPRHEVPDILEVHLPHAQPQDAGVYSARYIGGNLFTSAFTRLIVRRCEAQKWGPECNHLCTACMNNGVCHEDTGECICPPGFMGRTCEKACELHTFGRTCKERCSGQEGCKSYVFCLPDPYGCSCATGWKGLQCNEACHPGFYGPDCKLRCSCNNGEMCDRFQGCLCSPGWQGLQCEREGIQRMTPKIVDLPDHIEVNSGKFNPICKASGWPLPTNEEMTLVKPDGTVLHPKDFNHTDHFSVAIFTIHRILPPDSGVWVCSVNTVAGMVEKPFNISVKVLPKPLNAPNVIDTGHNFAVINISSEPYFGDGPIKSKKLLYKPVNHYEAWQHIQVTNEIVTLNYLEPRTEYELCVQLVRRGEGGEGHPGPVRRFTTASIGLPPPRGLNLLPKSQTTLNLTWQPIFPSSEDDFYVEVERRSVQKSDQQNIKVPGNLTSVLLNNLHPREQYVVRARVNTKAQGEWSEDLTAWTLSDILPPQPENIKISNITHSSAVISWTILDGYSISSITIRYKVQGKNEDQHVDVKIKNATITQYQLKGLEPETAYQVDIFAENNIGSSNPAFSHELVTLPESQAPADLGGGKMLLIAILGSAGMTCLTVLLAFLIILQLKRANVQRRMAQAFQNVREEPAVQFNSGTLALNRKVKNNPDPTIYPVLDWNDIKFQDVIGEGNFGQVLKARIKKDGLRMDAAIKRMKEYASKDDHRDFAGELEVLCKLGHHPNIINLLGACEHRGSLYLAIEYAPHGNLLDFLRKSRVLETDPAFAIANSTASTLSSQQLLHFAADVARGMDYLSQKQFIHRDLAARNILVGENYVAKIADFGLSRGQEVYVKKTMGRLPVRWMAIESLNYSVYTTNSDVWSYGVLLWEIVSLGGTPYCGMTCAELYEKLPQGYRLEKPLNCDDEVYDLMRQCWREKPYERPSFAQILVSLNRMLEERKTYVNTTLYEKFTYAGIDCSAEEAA
# PAK4(h), sequence (O96013 whole entry): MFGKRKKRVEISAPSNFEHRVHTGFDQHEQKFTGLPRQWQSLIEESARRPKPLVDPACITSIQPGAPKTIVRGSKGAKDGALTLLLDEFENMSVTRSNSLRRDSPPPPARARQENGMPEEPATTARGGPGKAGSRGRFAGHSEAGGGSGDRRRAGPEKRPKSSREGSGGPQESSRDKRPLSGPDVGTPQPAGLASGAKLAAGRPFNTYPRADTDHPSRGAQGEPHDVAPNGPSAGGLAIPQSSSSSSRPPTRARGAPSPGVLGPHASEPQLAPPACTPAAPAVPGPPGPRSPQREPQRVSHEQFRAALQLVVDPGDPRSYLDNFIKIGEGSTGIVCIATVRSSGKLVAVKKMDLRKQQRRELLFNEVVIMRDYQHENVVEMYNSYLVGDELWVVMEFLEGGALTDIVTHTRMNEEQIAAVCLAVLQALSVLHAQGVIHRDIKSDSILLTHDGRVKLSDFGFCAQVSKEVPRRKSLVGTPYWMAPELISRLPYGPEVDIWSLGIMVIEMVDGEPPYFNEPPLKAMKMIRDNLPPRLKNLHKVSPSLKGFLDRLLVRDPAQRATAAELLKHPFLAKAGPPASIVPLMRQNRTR
# PDGFRα(D842V)(h), sequence (P16234 24-1089 D842V): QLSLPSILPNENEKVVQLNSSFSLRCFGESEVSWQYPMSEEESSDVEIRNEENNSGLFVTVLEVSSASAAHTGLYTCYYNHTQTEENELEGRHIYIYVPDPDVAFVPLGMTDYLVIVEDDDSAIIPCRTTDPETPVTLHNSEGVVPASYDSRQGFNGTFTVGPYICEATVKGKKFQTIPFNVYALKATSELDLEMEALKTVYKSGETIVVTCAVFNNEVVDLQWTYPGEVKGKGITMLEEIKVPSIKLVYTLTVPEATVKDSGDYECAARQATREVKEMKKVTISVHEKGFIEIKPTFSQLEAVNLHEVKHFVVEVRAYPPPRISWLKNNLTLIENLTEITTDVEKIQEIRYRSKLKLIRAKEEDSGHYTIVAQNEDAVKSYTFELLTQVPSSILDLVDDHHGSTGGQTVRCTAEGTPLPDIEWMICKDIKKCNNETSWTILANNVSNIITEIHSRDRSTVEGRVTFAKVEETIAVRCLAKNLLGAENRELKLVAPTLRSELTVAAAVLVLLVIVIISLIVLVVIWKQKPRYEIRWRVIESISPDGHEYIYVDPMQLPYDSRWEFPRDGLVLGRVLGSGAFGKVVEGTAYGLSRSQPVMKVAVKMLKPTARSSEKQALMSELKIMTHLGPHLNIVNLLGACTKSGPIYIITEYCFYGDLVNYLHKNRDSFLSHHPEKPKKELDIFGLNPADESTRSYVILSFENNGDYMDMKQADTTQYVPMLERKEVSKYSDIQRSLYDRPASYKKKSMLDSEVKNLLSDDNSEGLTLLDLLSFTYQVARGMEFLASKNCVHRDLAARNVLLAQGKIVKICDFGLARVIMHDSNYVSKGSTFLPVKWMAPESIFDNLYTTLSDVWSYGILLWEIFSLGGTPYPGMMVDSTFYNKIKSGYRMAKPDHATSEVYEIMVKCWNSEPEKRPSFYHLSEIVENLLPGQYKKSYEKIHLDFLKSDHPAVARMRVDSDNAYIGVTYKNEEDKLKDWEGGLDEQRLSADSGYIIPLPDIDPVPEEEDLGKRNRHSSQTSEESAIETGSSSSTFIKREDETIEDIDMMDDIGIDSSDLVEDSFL
# Aurora-B(h), sequence (Q96GD4 whole entry): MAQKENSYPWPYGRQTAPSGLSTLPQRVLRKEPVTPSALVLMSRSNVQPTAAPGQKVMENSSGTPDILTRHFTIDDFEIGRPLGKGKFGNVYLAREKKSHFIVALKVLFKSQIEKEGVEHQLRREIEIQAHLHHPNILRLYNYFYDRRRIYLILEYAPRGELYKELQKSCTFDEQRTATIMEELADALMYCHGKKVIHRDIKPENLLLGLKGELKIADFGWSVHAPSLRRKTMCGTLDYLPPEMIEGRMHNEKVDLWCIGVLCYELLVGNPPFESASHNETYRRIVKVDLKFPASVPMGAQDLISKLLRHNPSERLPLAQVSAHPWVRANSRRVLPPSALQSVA
# CK1δ(h), sequence (P48730 whole entry): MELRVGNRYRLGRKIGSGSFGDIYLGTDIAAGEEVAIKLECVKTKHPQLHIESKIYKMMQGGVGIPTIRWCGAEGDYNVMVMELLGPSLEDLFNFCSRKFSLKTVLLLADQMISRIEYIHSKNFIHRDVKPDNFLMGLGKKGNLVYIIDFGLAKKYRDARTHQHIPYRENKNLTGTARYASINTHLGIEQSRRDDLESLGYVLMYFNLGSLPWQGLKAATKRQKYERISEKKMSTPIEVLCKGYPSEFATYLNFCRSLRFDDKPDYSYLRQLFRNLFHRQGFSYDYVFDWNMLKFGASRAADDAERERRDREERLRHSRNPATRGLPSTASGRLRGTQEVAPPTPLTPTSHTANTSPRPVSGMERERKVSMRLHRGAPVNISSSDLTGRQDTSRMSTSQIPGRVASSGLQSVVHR
# PIP5K1α(h), sequence (Q99755 whole entry): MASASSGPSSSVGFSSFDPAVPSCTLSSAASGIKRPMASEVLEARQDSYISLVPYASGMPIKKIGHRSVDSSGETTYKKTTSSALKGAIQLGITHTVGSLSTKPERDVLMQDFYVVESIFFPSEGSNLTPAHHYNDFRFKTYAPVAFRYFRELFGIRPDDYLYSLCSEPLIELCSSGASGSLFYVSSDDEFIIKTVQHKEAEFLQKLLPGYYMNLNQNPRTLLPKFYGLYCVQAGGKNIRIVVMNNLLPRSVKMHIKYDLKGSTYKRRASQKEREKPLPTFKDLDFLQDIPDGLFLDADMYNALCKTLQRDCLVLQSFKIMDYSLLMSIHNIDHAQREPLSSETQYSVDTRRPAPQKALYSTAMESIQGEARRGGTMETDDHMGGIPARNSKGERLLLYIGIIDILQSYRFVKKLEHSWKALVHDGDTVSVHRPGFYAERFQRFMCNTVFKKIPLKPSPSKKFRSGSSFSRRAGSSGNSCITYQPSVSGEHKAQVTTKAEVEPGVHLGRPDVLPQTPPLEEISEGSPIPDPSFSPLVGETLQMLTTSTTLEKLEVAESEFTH
# SGK(h), sequence (O00141 whole entry): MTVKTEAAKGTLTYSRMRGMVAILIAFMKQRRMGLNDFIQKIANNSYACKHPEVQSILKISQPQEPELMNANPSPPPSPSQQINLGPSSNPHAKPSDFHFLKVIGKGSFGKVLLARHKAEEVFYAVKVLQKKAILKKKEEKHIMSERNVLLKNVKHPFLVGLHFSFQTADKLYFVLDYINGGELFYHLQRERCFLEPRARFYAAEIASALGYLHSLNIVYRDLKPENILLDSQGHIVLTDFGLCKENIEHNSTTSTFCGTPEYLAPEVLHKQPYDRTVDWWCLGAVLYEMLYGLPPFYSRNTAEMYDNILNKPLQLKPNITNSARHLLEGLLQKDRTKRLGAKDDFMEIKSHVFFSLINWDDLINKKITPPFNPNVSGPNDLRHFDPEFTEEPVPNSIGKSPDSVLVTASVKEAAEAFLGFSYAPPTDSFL
SMILES,inhibition at 0.1 µM (SAPK4(h)) [%],inhibition at 0.1 µM (Arg(h)) [%],inhibition at 0.1 µM (Aurora-B(h)) [%],inhibition at 0.1 µM (PAK4(h)) [%],inhibition at 0.1 µM (PIP4K2α(h)) [%],inhibition at 0.1 µM (CK1δ(h)) [%],inhibition at 0.1 µM (SGK(h)) [%],inhibition at 0.1 µM (EphB1(h)) [%],inhibition at 0.1 µM (Fes(h)) [%],inhibition at 0.1 µM (ALK4(h)) [%],inhibition at 0.1 µM (TSSK1(h)) [%],inhibition at 0.1 µM (ULK2(h)) [%],inhibition at 0.1 µM (PRAK(h)) [%],inhibition at 0.1 µM (PIP5K1α(h)) [%],inhibition at 0.1 µM (TAO1(h)) [%],inhibition at 0.1 µM (JNK3(h)) [%],"inhibition at 0.1 µM (EGFR(T790M, L858R)(h)) [%]",inhibition at 0.1 µM (CaMKIδ(h)) [%],inhibition at 0.1 µM (EGFR(L858R)(h)) [%],inhibition at 0.1 µM (PKCδ(h)) [%],also measured
Cc1cc2c(F)c(Oc3nc(Nc4cc(C5CC5)[nH]n4)cc(N4CCN(C)CC4)n3)ccc2[nH]1 [Compound 10],-13,104,97,29,1,-21,-38,101,48,77,4,37,-24,-2,24,-1,53,6,-5,5,inhibition at 0.1 µM (eEF-2K(h)): -15%; inhibition at 0.1 µM (BrSK1(h)): 47%; inhibition at 0.1 µM (Fer(h)): 38%; inhibition at 0.1 µM (Mer(h)): 97%; inhibition at 0.1 µM (Tie2(Y897S)(h)): 91%; inhibition at 0.1 µM (SAPK2a(h)): 10%; inhibition at 0.1 µM (PhKγ2(h)): 2%; inhibition at 0.1 µM (VRK2(h)): 34%; inhibition at 0.1 µM (PDGFRα(D842V)(h)): 73%; inhibition at 0.1 µM (cKit(V560G)(h)): 89%; inhibition at 0.1 µM (PTK5(h)): 72%; inhibition at 0.1 µM (TAK1(h)): 38%
"Cc1cc2c(F)c(Oc3nc(Nc4cc(C5CC5)[nH]n4)cc(N4CCNCC4)n3)ccc2[nH]1 [Compound 11, N-(5-cyclopropyl-1H-pyrazol-3-yl)-2-((4-fluoro-2-methyl-1H-indol-5-yl)oxy)-6-(piperazin-1-yl)pyrimidin-4-amine]",3,102,98,23,-4,-3,-19,100,54,81,3,30,6,-3,26,-6,69,5,23,5,inhibition at 0.1 µM (eEF-2K(h)): 10%; inhibition at 0.1 µM (BrSK1(h)): 40%; inhibition at 0.1 µM (Fer(h)): 45%; inhibition at 0.1 µM (Mer(h)): 96%; inhibition at 0.1 µM (Tie2(Y897S)(h)): 93%; inhibition at 0.1 µM (SAPK2a(h)): -7%; inhibition at 0.1 µM (PhKγ2(h)): 13%; inhibition at 0.1 µM (VRK2(h)): 4%; inhibition at 0.1 µM (PDGFRα(D842V)(h)): 70%; inhibition at 0.1 µM (cKit(V560G)(h)): 94%; inhibition at 0.1 µM (PTK5(h)): 72%; inhibition at 0.1 µM (TAK1(h)): 44%
